Measured values published in patent US11053201B2, “Crystalline forms” (SYNGENTA PARTICIPATIONS AG, priority 2018, dated 2021).

Tests used:
[1] = temperature cycling test of FS200 flowable concentrate for seed treatment formulations, analysed under a microscope (40×) for crystal growth; type: physicochemical; conditions: for crystal growth: FS formulation
Experimental: As mentioned previously, it is crucial for the successful application of an agrochemical and/or pharmaceutical formulation that the crystalline form is stable in the particular formulation environment. Flowable concentrates for seed treatment (FS) formulations were prepared for both Form A and Form B. The only difference between the two formulations was the polymorphic form used, all of the other components were identical. The formulations were analyzed under a microscope (40×) for possible crystal growth which can have detrimental consequences such as thickening and potentially solidification of the formulation which can in turn lead to blockages in application equipment, e.g. in seed coating equipment or in spray nozzles in agricultural application machinery. Pictures were taken of the formulations at (i) start (FIGS. 13a and 14a), (ii) immediately after the temperature cycling test (FIGS. 13b and 14b) and (iii) two days at room temperature (RT) after the temperature cycling test (FIGS. 13c and 14c). The pictures are shown for the formulation comprising Form A in FIGS. 13a, 13b and 13c and the pictures for the formulations comprising Form B in FIGS. 14a, 14b and 14c. […] The recipe used is given in Table 8: The above formulations were tested for stability in a temperature cycling test as shown in FIG. 12. The formulations were then analyzed under the microscope (40×) to check for possible stability issues, in particular crystal growth and pictures were taken.

[2] = chemical stability of the polymorphic forms in the formulations tested; conditions: in the FS formulations tested
[3] = at start, before the temperature cycling test, microscope 40× (FIGS. 13a, 14a)
[4] = immediately after the temperature cycling test, microscope 40× (FIGS. 13b, 14b)
[5] = two days at room temperature after the temperature cycling test, microscope 40× (FIGS. 13c, 14c)

Row | Structure (SMILES) | crystal growth [1, 3] | crystal growth [1, 4] | crystal growth [1, 5] | resistance to crystal growth ([1]; when exposed to typical storage conditions) | chemical stability (compound degradation) [2]
1 | O=C(N[C@H]1CC[C@H]1c1ccc(Cl)cc1Cl)c1cccnc1C(F)(F)F [Form A, N-[(1S,2S)-2-(2,4-dichlorophenyl)cyclobutyl]-2-(trifluoromethyl) pyridine-3-carboxamide] | did not exhibit any crystal growth | clear crystal growth | even further crystal growth |  | 
2 | O=C(N[C@H]1CC[C@H]1c1ccc(Cl)cc1Cl)c1cccnc1C(F)(F)F [Form B, (1S,2S) N-[2-(2,4-dichlorophenyl)cyclobutyl]-2-(trifluoromethyl)pyridine-3-carboxamide] | did not exhibit any crystal growth | no such crystal growth | no such crystal growth | surprisingly resistant to crystal growth | no compound degradation was observed
